Patent US20190201377A1, “METHODS AND COMPOSITIONS FOR TREATMENT OF LIPID STORAGE DISORDERS” (Neurotrope BioScience, Inc., priority 2014, published 2019)

Columns and labels:
M12 NPC1 CHO cells [1] = assay: Cholesterol storage by filipin staining in NPC1 CHO (M12) cells; format: cell-based, Chinese hamster; settings: for filipin fluorescence, % of levels in untreated cells: oleic/linoleic acids for 48 hours, M12 CHO cells
Method: The human wild-type fibroblast (GM05387), NPC1o fibroblast (GM09341), and NPC1 fibroblast (GM03123) cell lines were obtained from Coriell Cell Repositories (Camden, N.J.). The M12 Chinese hamster ovary (CHO) cell line and its wild-type parental line were obtained and cultured. Fibroblast cell lines were cultured in DMEM, and CHO cells were cultured in DMEM/F12 (50:50) medium, supplemented with 10% FBS, 2 mM L-glutamine, and 50 μg/ml gentamicin in a humidified incubator at 37° C. with 5% CO2. For filipin staining in transfected cells, cells were transfected with PKC or Rab9 using Fugene 6 according to the manufacturer's recommendations. After 48 hrs, cells were stained with filipin as we have previously described [3 7]. Cells were mounted onto slides using Fluoromount-G (Southern Biotech, Birmingham, Ala.) and analyzed on a Nikon Eclipse microscope fitted with a charge-coupled-device camera (Nikon, Melville, N.Y.). Images were acquired with MetaVue software and then deconvoluted using AutoDeblur software from AutoQuant Imaging, Inc (Troy, N.Y.). For quantitation of filipin fluorescence, cells were seeded at 3×10^5 cells/well in 6-well dishes and allowed to settle overnight, after which the medium was replaced with medium containing 10% lipoprotein deficient serum (LPDS) for 4 days. Cells were incubated with oleic/linoleic acids for 48 hours, […] for 24 hrs, or diazoxide for 72 hrs before fixing and staining with filipin as we have previously described. Images were acquired using the same exposure time for all samples. Fluorescence intensity was determined using the integrated intensity function of MetaVue software; at least 150 cells were quantitated for each sample and each experiment was repeated 3 times. For analysis of sphingolipid transport, cells were incubated with oleic/linoleic acids, DCP-LA, or PMA for 48 hours before BODIPY-LacCer staining was performed as previously described.

human NPC1 3123 cells [2] = assay: Sphingolipid transport by BODIPY-LacCer staining; format: cell-based; settings: 48 hours
Excerpt: For filipin staining in transfected cells, cells were transfected with PKC or Rab9 using Fugene 6 according to the manufacturer's recommendations. After 48 hrs, cells were stained with filipin as we have previously described [3 7]. Cells were mounted onto slides using Fluoromount-G (Southern Biotech, Birmingham, Ala.) and analyzed on a Nikon Eclipse microscope fitted with a charge-coupled-device camera (Nikon, Melville, N.Y.). Images were acquired with MetaVue software and then deconvoluted using AutoDeblur software from AutoQuant Imaging, Inc (Troy, N.Y.). For quantitation of filipin fluorescence, cells were seeded at 3×10^5 cells/well in 6-well dishes and allowed to settle overnight, after which the medium was replaced with medium containing 10% lipoprotein deficient serum (LPDS) for 4 days. Cells were incubated with oleic/linoleic acids for 48 hours, DCPLA/DHA for 24 hrs, or diazoxide for 72 hrs before fixing and staining with filipin as we have previously described. Images were acquired using the same exposure time for all samples. Fluorescence intensity was determined using the integrated intensity function of MetaVue software; at least 150 cells were quantitated for each sample and each experiment was repeated 3 times. For analysis of sphingolipid transport, cells were incubated with oleic/linoleic acids, DCP-LA, or PMA for 48 hours before BODIPY-LacCer staining was performed as previously described.
To further confirm the positive effects of DCP-LA and fatty acids on the NPC1 phenotype, human NPC1 cells were treated with DCP-LA, fatty acids, or PMA to activate PKCs. […] Following absorption to the plasma membrane, the LacCer sphingolipid enters normal cells via endocytosis and eventually reaches the trans-Golgi network (TGN; [30]). […] Human NPC1 cells treated as indicated in FIG. 7 show a dramatic improvement in lipid transport with the BODIPY-LacCer effectively reaching the TGN (FIG. 7; arrows) compared to untreated cells that show only punctate, endosomal fluorescence (FIG. 7A).

NPC cells = settings: PMA treatment of NPC cells, earlier study [5]; cited from earlier work
M12 NPC1 CHO cells [3] = assay: Cholesterol esterification assay in M12 NPC1 CHO cells; format: cell-based, Chinese hamster; settings: for esterification levels over untreated cells: 50 μg/ml fatty acid for 2 days followed by expression of PKC ε
Method: The preparation of [3H] oleate substrate and esterification assays were performed as previously described. Cells were treated with 50 μg/ml fatty acid for 2 days and then transfected with […] or PKCε for 24 hrs before esterification assays. All values were generated in triplicate and normalized for total cell protein.

human NPC1 3123 cells [4] = assay: Cholesterol storage by filipin staining in human NPC1 3123 fibroblasts; format: cell-based; settings: oleic/linoleic acids for 48 hours
Method: The human wild-type fibroblast (GM05387), NPC1o fibroblast (GM09341), and NPC1 fibroblast (GM03123) cell lines were obtained from Coriell Cell Repositories (Camden, N.J.). The M12 Chinese hamster ovary (CHO) cell line and its wild-type parental line were obtained and cultured. Fibroblast cell lines were cultured in DMEM, and CHO cells were cultured in DMEM/F12 (50:50) medium, supplemented with 10% FBS, 2 mM L-glutamine, and 50 μg/ml gentamicin in a humidified incubator at 37° C. with 5% CO2. For filipin staining in transfected cells, cells were transfected with PKC or Rab9 using Fugene 6 according to the manufacturer's recommendations. After 48 hrs, cells were stained with filipin as we have previously described [3 7]. Cells were mounted onto slides using Fluoromount-G (Southern Biotech, Birmingham, Ala.) and analyzed on a Nikon Eclipse microscope fitted with a charge-coupled-device camera (Nikon, Melville, N.Y.). […] For quantitation of filipin fluorescence, cells were seeded at 3×10^5 cells/well in 6-well dishes and allowed to settle overnight, after which the medium was replaced with medium containing 10% lipoprotein deficient serum (LPDS) for 4 days. […] Fluorescence intensity was determined using the integrated intensity function of MetaVue software; at least 150 cells were quantitated for each sample and each experiment was repeated 3 times. […]

NPC3-SV cells [5] = assay: Stored cholesterol by filipin staining in NPC3-SV cells; format: cell-based, Human; settings: for clearance of cholesterol from NPC1 cells: 48 h, FIG. 8, different drug concentrations; for stored cholesterol levels: 72 h, FIG. 9
Method: (§1) Cells are plated in 6-well dishes and treated with the appropriate compound (dissolved in DMSO) at the indicated dose daily for 48 hrs. Control cells receive DMSO. After 48 hrs cells are transferred to cover slips with fresh compound and grown for another 24 hrs. Cover slips are collected and processed for microscopy.
(§2) For detection of unesterified cholesterol in lysosomes, cells were fixed in formalin for 30 min at 4° C., washed 2×, 5 min in 0.9% NaCl, incubated for 45 min with 0.01% filipin in PBS at room temperature, and then washed 2×, 5 min. Fluorescence was observed using a Nikon Eclipse fluorescence microscope (Nikon, Melville, N.Y.) equipped with a CCD camera. Fluorescence signals were quantified using Nikon's imaging and quantitation software package NIS Elements, v.3.22.

human NPC24-SV cells [6] = assay: Cholesterol accumulation by filipin staining in NPC24-SV cells; format: cell-based; settings: for effect in cholesterol assay: NPC24-SV cells, FIG. 13
Method: as §1, §2

C57 NPC1 mice = assay: Treatment of C57 NPC1 mice, life span; format: in vivo, mouse
Method: A total of […] C57B16 NPC1 mice, mixed sex, were used. These mice were separated into […], Groups 1-5.
Bryostatin 1 (purity ≥:95%) from Aphios (Woburn, Mass.), 1 vial 2 mg, was solubilized in a 5% DMSO, 20% Solutol and 75% Saline solution and used as the study drug. The negative (vehicle) control is a 5% DMSO, 20% Solutol and 75% Saline solution. DCP-LA from Sigma-Aldrich: 5 mg oil/vial was used as an additional in vitro active compound. Bryostatin 1 (API) was stored at or below −20° C. and formulated as needed. The formulated bryostatin 1 was stored at 2° to 8° C. for less than 24 hour(s). The DCP-LA and the vehicle controls were stored at 2°-8° C.
The stock solution of bryostatin 1 is 1 Omg/ml in DMSO, which is kept at −80° C. in aliquots. The dosing formulation is made by diluting the stock first in DMSO, then adding solutol, and lastly saline-with more insoluble compounds, adding the drug stock to complete vehicle will cause the compound to come out of solution, so we make formulations stepwise. The dosing volume is always 100 μl. Mice weigh approximately 20 g.
The mice are dosed twice weekly (Mon and Thu) starting at 30 days for up to 150 days.
C57 NPC1 mice have an average life span of ˜110 days. By Day 70 mice reach an average weight of 18-22 grams. Untreated NPC1 mice develop ataxia and will begin to lose weight at ˜70 days (see FIG. 17). Ataxia (or lack of voluntary muscle control) is a clinical feature of NPC1 mice, which may be described as shaking. Treatment will be initiated at ˜30 days of age, average NPC mouse weight of 10 g. If the drug is efficacious injections will continue past day 70-80. An extension of life of about 20-30% will mean that animals will need to be treated up to day 130-150.

NPC3SV cells = format: cell-based, Human
NPC3-SV cells [7] = format: cell-based, Human
human NPC24-SV cells [8] = assay: Glycosphingolipid accumulation by VTB staining in NPC24-SV cells; format: cell-based

## CC/C=C\C/C=C\C/C=C\C/C=C\C/C=C\C/C=C\CCC(=O)O [DHA, docosahexanoic acid]
M12 NPC1 CHO cells [1]; 10 μM DHA, 24 hrs (overnight)
  reduction of cholesterol storage (filipin intensity): ~50%

## CCCCCCCCCCCCCC(=O)O[C@@H]1[C@@H](C)[C@@]2(O)[C@@H](C=C(CO)C[C@]3(O)C(=O)C(C)=C[C@@H]23)[C@@H]2C(C)(C)[C@]12OC(C)=O [PMA, phorbol-12-myristate-13-acetate]
Human NPC1 3123 cells [2]; 100 nM PMA
  BODIPY-LacCer transport to the trans-Golgi network: the lipid can be seen in the TGN
NPC cells
  NPC lipid storage phenotype: ameliorated the NPC lipid storage phenotype

## CCCCC/C=C\C/C=C\CCCCCCCC(=O)O [linoleic acid]
M12 NPC1 CHO cells [1]
  filipin fluorescence, % of levels in untreated cells: ~75%
M12 NPC1 CHO cells [3]; 50 μg/ml fatty acid for 2 days
  increase of cholesterol esterification compared to untreated M12 cells: greater than 2 fold
M12 NPC1 CHO cells [3]
  esterification levels over untreated cells: ~3.5 fold
Human NPC1 3123 cells [2]; 2 μg/ml linoleic acid
  BODIPY-LacCer transport to the trans-Golgi network: the lipid can be seen in the TGN
Human NPC1 3123 cells [4]
  filipin fluorescence, % of levels in untreated cells: ~75%

## CC1=NS(=O)(=O)c2cc(Cl)ccc2N1 [diazoxide]
M12 NPC1 CHO cells [1]; 100 μM diazoxide, 72 hrs
  reduction of cholesterol storage (filipin intensity): ~50%
NPC3-SV cells [5]
  clearance of cholesterol from NPC1 cells: able to induce clearance of cholesterol

## CCCCCCCC/C=C\CCCCCCCC(=O)O [oleic acid, cis-9-octadecenoic acid]
M12 NPC1 CHO cells [1]
  filipin fluorescence, % of levels in untreated cells: ~75%
M12 NPC1 CHO cells [3]
  esterification levels over untreated cells: ~3.5 fold
Human NPC1 3123 cells [2]; 2 μg/ml oleic acid
  BODIPY-LacCer transport to the trans-Golgi network: the lipid can be seen in the TGN
Human NPC1 3123 cells [4]
  filipin fluorescence, % of levels in untreated cells: ~75%

## CCC/C=C/C=C/C(=O)O[C@H]1/C(=C/C(=O)OC)C[C@H]2C[C@H]([C@@H](C)O)OC(=O)C[C@H](O)C[C@@H]3C[C@H](OC(C)=O)C(C)(C)[C@](O)(C[C@@H]4C/C(=C/C(=O)OC)C[C@H](/C=C/C(C)(C)[C@]1(O)O2)O4)O3 [bryostatin 1]
NPC3-SV cells [5]
  clearance of cholesterol from NPC1 cells: able to induce clearance of cholesterol
  stored cholesterol levels: most active compound showing activity in the nanomolar concentration range
Human NPC24-SV cells [6]; 0.1 nM
  effect in cholesterol assay: no effect
Human NPC24-SV cells [6]; 1 nM, increases with increasing concentration
  effect in cholesterol assay: statistically significant
Human NPC24-SV cells [6]; 10 nM bryostatin 1, NPC24-SV cell line, FIG. 11
  cholesterol clearance: able to effect cholesterol 2 clearance
Human NPC24-SV cells [6]; summary of the cholesterol and glycosphingolipid assays of Example 2
  concentration showing a positive therapeutic effect for human NPC1 disease cells: 10 to 100 nM
C57 NPC1 mice; 10 μg/kg IP twice weekly starting at 30 days
  age that mice lived past: > 100 days
C57 NPC1 mice; 20 μg/kg IP twice weekly starting at 30 days
  age that mice lived past: > 100 days
C57 NPC1 mice; 30 μg/kg IP twice weekly starting at 30 days
  age that mice lived past: > 100 days
NPC3SV cells
  clearance of endosome-trapped cholera toxin (CTB): able to clear the endosome-trapped cholera toxin (CTB)
NPC3-SV cells [7]
  glycosphingolipid accumulation (VTB): statistically significant effectiveness in decreasing the glycosphingolipid accumulation
Human NPC24-SV cells [8]; 0.1 nM, FIG. 14
  effect in sphingolipid assay: no effect
Human NPC24-SV cells [8]; 1 nM, FIG. 14, increases with increasing concentration
  effect in sphingolipid assay: statistically significant

## CCCCCC1CC1CC1CC1CCCCCCCC(=O)O (stereo not shown) [DCP-LA, 8-[2-(2-pentylcyclopropylmethyl)-cyclopropyl]-octanoic acid]
M12 NPC1 CHO cells [1]; 100 μM DCP-LA, 24 hrs (overnight)
  reduction of cholesterol storage (filipin intensity): ~50%
NPC3-SV cells [5]
  clearance of cholesterol from NPC1 cells: able to induce clearance of cholesterol
  stored cholesterol levels: decrease stored cholesterol levels
Human NPC24-SV cells [6]; DCPLA, concentration not given, NPC24-SV cell line, FIG. 11
  filipin accumulation: decrease filipin accumulation
Human NPC1 3123 cells [2]; 20 μM DCP-LA
  BODIPY-LacCer transport to the trans-Golgi network: the lipid can be seen in the TGN
NPC3SV cells; DCPLA, concentration not given, NPC3SV cells, FIG. 12
  ganglioside transport block (CTB): release the ganglioside transport block
NPC3-SV cells [7]
  stored glycosphingolipid levels (VTB): decrease stored glycosphingolipid levels
